The source of these data is paper PMC9916356, “Design, Synthesis and Pharmacological Evaluation of New Quinoline-Based Panx-1 Channel Blockers” (International Journal of Molecular Sciences, 2023).

One data set is described as follows: physchem. Set-up: chemical stability in PBS at 37 °C, HPLC-MS/MS, half-life from first-order degradation plot. To be noted: PBS. As for the experimental part: (§1) In these assays, the variation of analytes concentration at four different incubation times both in PBS and in human plasma samples was monitored to evaluate their susceptibility toward spontaneous or enzymatic hydrolysis, respectively. By plotting any variation of analyte concentration vs. the incubation time, the corresponding degradation profiles in tested matrices were obtained. The analyte concentration (1 µM) used during the stability tests is generally smaller than its Michaelis–Menten constant (KM), and the enzymatic degradation rate is described by a first-order kinetic. Therefore, by plotting the natural logarithm of the quantitative data versus the incubation time, a linear function can be used, and its slope represents the degradation rate (k). Accordingly, with the linear function, the half-life (t1/2) of each tested compound can be calculated as follows: t1/2=[…] The plots of the natural logarithm of the quantitative data versus the incubation time of all the studied compounds were analyzed. […] Parameters beyond this value will be indicated as >120 min. […] The degradation plots in PBS and human plasma of our ester compounds are reported in Supporting Information (Figures S1–S6 and Table S1).

A short description of a further data set: in vitro. Also on record: stability in human plasma at 37 °C, HPLC-MS/MS, half-life from first-order degradation plot. The note with it: plasma; human plasma; read-out: H-pl. As for the experimental part: as §1
Data set [1] deals with T1, Panx-1 (Mus musculus, UniProt Q9JIP4).
T1 construct: gene Panx1
Nature of the data set: two-electrode voltage clamp, Xenopus laevis oocytes, single dose […]. It counts as cell-based.

Data set [2] deals with T1, Panx-1. Nature of the data set: two-electrode voltage clamp in oocytes, […] CBX applied in each experiment. To be noted: read-out: % inhibition at 100 μM. Format: cell-based.
Data set [3] addresses T1, Panx-1. Nature of the data set: two-electrode voltage clamp, Xenopus laevis oocytes expressing mouse pannexin1. Format: cell-based.

Read-outs that look alike come from different tables or passages of the source.

T1 sequence (Q9JIP4 whole entry): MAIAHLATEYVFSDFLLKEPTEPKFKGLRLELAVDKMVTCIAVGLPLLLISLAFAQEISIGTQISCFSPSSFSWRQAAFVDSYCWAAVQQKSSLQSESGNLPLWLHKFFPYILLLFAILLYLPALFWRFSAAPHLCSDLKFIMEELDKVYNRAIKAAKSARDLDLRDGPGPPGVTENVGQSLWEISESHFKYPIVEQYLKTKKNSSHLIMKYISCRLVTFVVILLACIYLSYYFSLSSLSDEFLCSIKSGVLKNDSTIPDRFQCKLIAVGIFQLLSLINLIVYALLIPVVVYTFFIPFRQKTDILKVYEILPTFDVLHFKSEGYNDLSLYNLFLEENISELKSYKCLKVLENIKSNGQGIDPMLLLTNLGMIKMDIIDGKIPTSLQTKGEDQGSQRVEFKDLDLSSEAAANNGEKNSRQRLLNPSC

As for `CCOC(=O)c1cn(CCCCCc2ccccc2)c2ccc([N+](=O)[O-])cc2c1=O` [4e, Ethyl 6-nitro-4-oxo-1-(5-phenylpentyl)-1,4-dihydroquinoline-3-carboxylate], the half-life at 1 µM in “physchem” and in the data set “in vitro” was over 2 h in each case.
As for `Nc1ccc2c(c1)c(=O)c(C(=O)O)cn2Cc1ccccc1` [compound 8, 6-Amino-1-benzyl-4-oxo-1,4-dihydroquinoline-3-carboxylic acid], the inhibition at 50 µM on Panx-1 [1] (read-out: TABLE 1) was found to be 57 ± 5.9%.
Still for that read-out and setting: the figure for `O=C(O)c1cn(Cc2ccccc2)c2ccc([N+](=O)[O-])cc2c1=O` [6a, 1-Benzyl-6-nitro-4-oxo-1,4-dihydroquinoline-3-carboxylic acid] is 53 ± 2.9%.
In the case of `CC1(C)[C@@H](OC(=O)CCC(=O)O)CC[C@]2(C)[C@H]3C(=O)C=C4[C@@H]5C[C@@](C)(C(=O)O)CC[C@]5(C)CC[C@@]4(C)[C@]3(C)CC[C@@H]12` [CBX, carbenoxolone], the inhibition at 100 µM on Panx-1 [2] was 100%.
Regarding `O=C(O)c1ccc(Nc2c(C(=O)O)cnc3ccccc23)cc1` [13g, 4-[(4-Carboxyphenyl)amino]quinoline-3-carboxylic acid], the midpoint of inhibition at Panx-1 [3], the IC50, lay at 15.5 µM.
As to `CCCN(CCC)S(=O)(=O)c1ccc(Nc2c(C(=O)O)cnc3ccccc23)cc1` [13e, 4-[4-(N,N-Dipropylsulfamoyl)phenyl]aminoquinoline-3-carboxylic acid], the IC50 at Panx-1 [3] is 4.2 µM.
For the molecule `CCOC(=O)c1cn(CCCCc2ccccc2)c2ccc([N+](=O)[O-])cc2c1=O` [4d, Ethyl 6-nitro-4-oxo-1-(4-phenylbutyl)-1,4-dihydroquinoline-3-carboxylate], the half-life at 1 µM in the data set “physchem” and in the data set “in vitro” was over 2 h throughout.
`CCOC(=O)c1cn(Cc2ccc(S(N)(=O)=O)cc2)c2ccc([N+](=O)[O-])cc2c1=O` [4f, Ethyl 6-nitro-4-oxo-1-(4-sulfamoylbenzyl)-1,4-dihydroquinoline-3-carboxylate]: the half-life at 1 µM in “physchem” and in the data set “in vitro” was over 2 h each time.
As for `NS(=O)(=O)c1ccc(Cn2cc(C(=O)O)c(=O)c3cc([N+](=O)[O-])ccc32)cc1` [6f, 6-Nitro-4-oxo-1-(4-sulfamoylbenzyl)-1,4-dihydroquinoline-3-carboxylic acid], it took 3 µM to reach half-maximal inhibition at Panx-1 [3] (IC50).
`CCOC(=O)c1cn(CCc2ccccc2)c2ccc([N+](=O)[O-])cc2c1=O` [4b, Ethyl 6-nitro-4-oxo-1-phenethyl-1,4-dihydroquinoline-3-carboxylate]: the half-life at 1 µM in “physchem” and in the data set “in vitro” was over 2 h throughout.
Take `O=C(O)c1ccc(Cn2cc(C(=O)O)c(=O)c3cc([N+](=O)[O-])ccc32)cc1` [6g, 1-(4-Carboxybenzyl)-6-nitro-4-oxo-1,4-dihydroquinoline-3-carboxylic acid]: at Panx-1 [3], the midpoint of inhibition, the IC50, lay at 1.5 µM.
On to `CCCNS(=O)(=O)c1ccc(Nc2c(C(=O)O)cnc3ccccc23)cc1` [13d, 4-[4-(N-Propylsulfamoyl)phenyl]aminoquinoline-3-carboxylic acid], for which the inhibition at 50 µM at Panx-1 [1] (read-out: TABLE 2) was 66 ± 4%.
